Data: patent publication US9512178B2, “Neurogenic brain-derived neurotrophic factor peptides” (Research Foundation for Mental Hygiene, Inc., priority 2012, dated 2016)

Tests used:
[1] = test system: E18 primary hippocampal neurons; assay: Western blots of neuronal markers, densitometry; assay type: cell-based, mouse; settings: 5 days
Experimental: (§1) Following treatment in 6-well plates, cells were washed 2× in glucose buffered saline, GBS (5.4 mM KCl, 138 mM NaCl, 22 mM glucose, and 2 mM Na—KPO pH 7.2), and then lysed by 5 min incubation on ice in 100 or 150 μl of ice-cold RIPA buffer (PBS, 1% w/v NP-40 from Fisher Scientific, 0.1% w/v SDS, and 0.5% w/v sodium desoxycholate) containing 1 mM AEBSF (Gold Biotechnology, St. Louis, Mo., USA), 10 μg/ml aprotinin (Sigma-Aldrich, St. Louis, Mo., USA), and 20 μg/ml of leupeptin and pepstatin (US Biochemicals, Cleveland, Ohio, USA), and phosphatase inhibitors: NaF, Na orthovanadate, (3-glycerophosphate, and microcystein (Sigma-Aldrich, St. Louis, Mo., USA). Extracts were prepared by collecting and pooling a minimum of 2 wells by scraping, and lysates were centrifuged at 20,000×g for 10 min at 4° C. Protein concentration of each cell lysate was determined using the BCA kit (Thermo Scientific, Rockford, Ill., USA). The lysates (7.5-20 μg total protein) were separated on 10% SDS-PAGE gels (except for BDNF where 12% gels were employed) and transferred to 0.45 μm PVDF membrane (Pall, Pensacola, Fla., USA) for probing with antibodies as noted. Blots were blocked for 1 hr at 37° C. in 1×TBST (0.05% Tween 20 in TBS) containing 5% w/v blotting grade dry milk (Bio-rad, Hercules, Calif., USA), incubated in primary antibody overnight in blocking buffer at 4° C., washed 3×10 min in TBST at room temperature, followed by incubation with secondary antibody, i.e., peroxidase-conjugated anti-mouse or anti rabbit IgG (Jackson ImmunoResearch Laboratories, West Grove, Pa., USA) diluted in blocking buffer. Blots were washed 3×10 min in TBST and immunoreactive protein bands were visualized with enhanced chemiluminescence (ECL) reagents (Pierce, Rockford, Ill., USA). The ECL films of the blots were scanned and analyzed using Multi Gauge software version 3.0 (Fujifilm, Tokyo, Japan).
(§2) The following primary antibodies were used: rabbit polyclonal anti-NFM (1:1000; Chemicon/Millipore, Billerica, Mass., USA); mouse monoclonal anti-NeuN, clone A60 (1:500; Millipore, Billerica, Mass., USA); rabbit polyclonal anti-Tuj-1, (3—III-tubulin (Covance; 1:800, Emeryville, Calif., USA); mouse monoclonal SMI 52 to the adult isoforms of MAP-2, MAP2a,b (1:1000; Covance, Emeryvilly, Calif., USA); rabbit polyclonal anti-Synapsin I (1:2000; Stressgen, Farmingdale, N.Y., USA); rabbit monoclonal anti-PSD95 (1:1000; Cell signaling, Danvers, Mass., USA); anti tau 92e (1:10000); mouse monoclonal anti-BDNF (1:1000; Calbiochem, Gibbstown, N.J., USA); rabbit polyclonal anti-TrkB (total) (1:500; Santa Cruz Biotechnology, Santa Cruz, Calif., USA); rabbit polyclonal anti-pTrkB (Tyr706) (1:400; Santa Cruz Biotechnology, Santa Cruz, Calif., USA), TrkC (1:1000; Cruz Biotechnology, Santa Cruz, Calif., USA); and pTrkY490 (1:500; Upstate USA Inc., Charlottesville, Va., USA). For loading control, the blots were developed with rabbit polyclonal antibody to GAPDH (1:2000; Santa Cruz Biotechnology, Santa Cruz, Calif., USA).
To biochemically study the effect of BDNF peptides in inducing expression of neuronal markers, protein samples were recovered from cells treated with peptides B-5, B-4, B-3, or vehicle for five days. As a positive control, protein samples were collected from cells treated with BDNF at 20 ng/ml (0.79 nM) or 100 ng/ml (3.95 nM) (FIG. 3D, E). Western blots of the cell lysates were developed with antibodies to Synapsin I (presynaptic marker), PSD95 (postsynaptic marker), NeuN (late neuronal marker), NFM (early neuronal marker), MAP2 (dendritic marker), 0-IIItubulin (early neuronal marker), and tau 92e (axonal marker).

BDNF = BDNF expression, Western blot, 5 days treatment; assay type: cell-based, mouse; settings: vs control medium
Experimental: as §1, §2
To investigate the molecular mechanism by which the BDNF peptides promoted neurogenic/neurotrophic activities, the hippocampal primary cultured neurons were treated with the peptides or BDNF for five days and compared with the control medium treated cells.

[2] = test system: mouse E18 primary hippocampal neurons; assay: Toxicity of the peptides: phase contrast morphology and LDH assay, 5 days treatment; assay type: cell-based; settings: 1 μM
Excerpt: To screen these peptides, primary neuronal cell cultures were used from embryonic day 18 (E18) C57BL/6 mouse hippocampus. At the fourth day in vitro (DIV), the culture medium was exchanged with the medium containing the peptides. The primary neuronal cultures were established as taught in the art (see, e.g., Cardenas-Aguayo Mdel, Santa-Olalla et al. 2003, hereby incorporate by reference). Briefly, C57BL/6 time pregnant E18 female mice from Charles River Labs were anesthetized and killed by cervical dislocation following our Institutional Animal Care and Use Committee (IACUC) regulations and approved protocol. Embryos were removed and placed in cold Hibernate A (available from Brain bits, Springfield, Ill., USA), and all of the following steps were performed in ice-cold Hibernate A, under a stereoscopic (dissection) microscope placed in a laminar flow hood. Fetal brains were removed carefully and fore brain were separated. Then, the hippocampus, including the cortex surrounding the area of the hippocampus, was dissected and cut into small pieces using microsurgical scissors. The cut tissue was transferred with number 5 forceps to 15 ml tubes containing 0.1% trypsin in Versene (Invitrogen Life Technologies, Grand Island, N.Y., USA) and incubated for 15 min at 37° C. followed by inactivation with 10% fetal bovine serum (FBS) in Neurobasal complete medium (Neurobasal Medium supplemented with 2×B-27, 0.30% glutamine, and penicillin/streptomycin 0.1 mg/ml and 0.1 U/ml respectively). All medium components were purchased from Invitrogen, Grand Island, N.Y., USA. […]
To study any toxic effect of the peptides, mouse E18 primary hippocampal neurons were treated with the five BDNF peptides individually for up to 5 days at different doses [5 nM, 25 nM, 50 nM (data not shown), 100 nM (0.1 μM), 1000 nM (1 μM), and 10,000 nM (10 μM)]. […] Accordingly, there was no significant change in the viability of cells treated with any of the peptides as evaluated by the lactate dehydrogenase (LDH) assay (see FIG. 2B). […]

TrkB receptor = target: T1, TrkB receptor (Mus musculus, UniProt P15209); assay: TrkB phosphorylation (Tyr 706) and TrkB level in primary E18 hippocampal cells, with or without K252a; assay type: cell-based; settings: K252a pretreatment 1 h (200 nM), then BDNF or peptides B-5 or B-3 for 5 min
T1 construct: endogenous in cells; host or cells: primary hippocampal neurons from embryonic day 18 C57BL/6 mice
Experimental: (§3) Peptides were dissolved in water in serial dilutions of 10 mM, 1 mM, 100 μM and 10 μM from which the necessary amount was added directly to the culture medium to a final concentration of 0.05 μM, 1 μM, or 10 μM. The BDNF (Peprotech, NJ, USA) was used as a reference in concentrations of 20 ng/ml (0.79 nM) and 100 ng/ml (3.95 nM). Cycloheximide (CHX) (Sigma-Aldrich, St Louis, Mo., USA) was used for blocking protein synthesis. CHX original stock was 100 mg/ml (355.4 mM) in DMSO; from a second stock of 35.54 mM in DMSO, the dilutions were made to the final concentrations of 100 μM. The K252a (CALBIOCHEM/EMD) was used to inhibit the TrkB Receptor. From a stock of 100 μM in DMSO, K252a was diluted to a final working concentration of 200 nM. The E18 primary hippocampal cells were pre-treated with CHX or K252a 1 h prior to the addition of the peptides or BDNF and a time course of these treatments for 15 min, 60 min and 2 days was studied.
as §1
as §2, with “Calif., USA). […]” for “Calif., USA).”

BDNF and TrkB = assay: Induction of BDNF and TrkB expression after pre-treatment with CHX or K252a; assay type: cell-based, mouse; settings: two days of treatment
Experimental: as §3
To evaluate whether the effect of B-5 and B-3 in induction of the expression of BDNF and TrkB was via the activation of the TrkB receptor and required signal transduction via TrkB and new protein synthesis, mouse embryonic E18 cultured hippocampal cells were pre-treated with the protein synthesis inhibitor, cycloheximide (CHX) or the Trk inhibitor K252a for 1 h, and then added Peptide B-5 at a concentration of 0.1 μM (the dose that gave the maximum induction of BDNF expression, FIGS. 5A and B) or BDNF 20 ng/ml as a positive control (FIG. 7C,D). A time course of these treatments was studied with Peptide B-5 or BDNF for 15 min, 60 min and two days.

T1 sequence (P15209 32-821): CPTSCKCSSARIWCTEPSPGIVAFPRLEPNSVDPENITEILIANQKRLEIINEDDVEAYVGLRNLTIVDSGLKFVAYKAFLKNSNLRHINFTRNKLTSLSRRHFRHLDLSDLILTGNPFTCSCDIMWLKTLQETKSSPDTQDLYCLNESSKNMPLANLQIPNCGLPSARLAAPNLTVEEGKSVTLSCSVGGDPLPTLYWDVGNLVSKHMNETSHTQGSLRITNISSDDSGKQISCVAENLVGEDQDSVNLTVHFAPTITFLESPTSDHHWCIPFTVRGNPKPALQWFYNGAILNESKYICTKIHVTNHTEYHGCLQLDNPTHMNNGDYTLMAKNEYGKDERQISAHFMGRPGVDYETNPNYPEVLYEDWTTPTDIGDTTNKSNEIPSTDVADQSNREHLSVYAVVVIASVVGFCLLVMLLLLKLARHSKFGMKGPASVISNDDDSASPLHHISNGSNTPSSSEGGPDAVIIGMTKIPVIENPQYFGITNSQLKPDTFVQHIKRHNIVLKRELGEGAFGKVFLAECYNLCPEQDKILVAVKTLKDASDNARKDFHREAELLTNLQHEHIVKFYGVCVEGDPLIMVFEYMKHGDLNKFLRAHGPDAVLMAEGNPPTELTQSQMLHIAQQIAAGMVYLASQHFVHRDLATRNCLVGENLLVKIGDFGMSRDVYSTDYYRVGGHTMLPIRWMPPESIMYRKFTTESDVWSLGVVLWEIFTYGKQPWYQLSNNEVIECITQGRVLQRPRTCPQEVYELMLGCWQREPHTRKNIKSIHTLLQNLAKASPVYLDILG

## Ac-D-K-R-H-CONH2 [Peptide B-4]
[1]; 0.1 μM
  expression of NeuN (Western blot): increased the expression of NeuN
  expression of PSD95 (Western blot): significant increment
[1]
  level of tau (92e antibody, Western blot): Neither BNDF nor peptides B-3, B-4 or B-5 had any significant effect
BDNF
  expression of BDNF (Western blot): induced the expression of BDNF

## Ac-R-R-G-E-CONH2 [Peptide B-1]
[2]
  cell death (LDH assay) vs vehicle treated cells: significant reduction in cell death

## COC(=O)[C@@]1(O)C[C@H]2O[C@]1(C)n1c3ccccc3c3c4c(c5c6ccccc6n2c5c31)C(=O)NC4 [Peptide K252a, reference compound]
TrkB receptor
  inhibition of the phosphorylation of TrkB at Tyrosine 706: clear inhibition
BDNF and TrkB; K252a pre-exposure 1 h (200 nM)
  block of the increase in expression of BDNF caused by BDNF peptides or BDNF: can be blocked

## C[C@@H]1C[C@@H]([C@H](O)CC2CC(=O)NC(=O)C2)C(=O)[C@@H](C)C1 [CHX, Cycloheximide, reference compound]
BDNF and TrkB; CHX pre-exposure 1 h (100 μM)
  block of the increase in expression of BDNF caused by BDNF peptides or BDNF: can be blocked
